#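 1) Cells in 96-well plates. 2) Compound, 48 h, 5 concentrations. 3) Linear interpolation between surrounding doses. 4) Unreached endpoint = highest concentration. GI50 is the concentration that inhibits growth by half. TGI: concentration producing complete growth inhibition.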
# What was measured:
# Assay in all cases: growth of human tumour cells (NCI), 48 h
# CCRF-CEM leukemia = test system: CCRF-CEM leukemia
# DU-145 prostate = test system: DU-145 prostate
# EKVX NSCLC = test system: EKVX NSCLC
# MCF7 breast = test system: MCF7 breast
# NCI-H23 lung = test system: NCI-H23 lung
# NCI-H522 lung = test system: NCI-H522 lung
# OVCAR-5 ovarian = test system: OVCAR-5 ovarian
# OVCAR-8 ovarian = test system: OVCAR-8 ovarian
# SK-MEL-5 melanoma = test system: SK-MEL-5 melanoma
# SNB-19 CNS = test system: SNB-19 CNS
SMILES,TGI (CCRF-CEM leukemia) [µM],TGI (DU-145 prostate) [µM],TGI (EKVX NSCLC) [µM],TGI (MCF7 breast) [µM],TGI (NCI-H23 lung) [µM],TGI (NCI-H522 lung) [µM],TGI (OVCAR-5 ovarian) [µM],TGI (OVCAR-8 ovarian) [µM],TGI (SK-MEL-5 melanoma) [µM],TGI (SNB-19 CNS) [µM],GI50 (DU-145 prostate) [µM],GI50 (CCRF-CEM leukemia) [nM],GI50 (EKVX NSCLC) [µM],GI50 (MCF7 breast) [µM],GI50 (NCI-H23 lung) [µM],GI50 (NCI-H522 lung) [µM],GI50 (OVCAR-5 ovarian) [µM],GI50 (OVCAR-8 ovarian) [µM],GI50 (SK-MEL-5 melanoma) [µM],GI50 (SNB-19 CNS) [µM]
c1ccc(-c2cnc(-c3ccc(-c4ncc(-c5ccccc5)o4)cc3)o2)cc1,> 100,> 100,> 100,> 100,> 100,> 100,> 100,> 100,> 100,> 100,–,–,–,–,–,–,–,–,–,–
O=C1CC(Sc2nc3ccc(I)cc3c(=O)n2Cc2ccccc2)C(=O)NN1 (stereo not drawn),24.1,34.8,31.8,28.2,30.1,4.26,41.4,28.4,29.7,39.1,–,–,–,–,–,–,–,–,–,–
CCc1nc2cc3cccnc3c(Cl)c2[nH]c1=O,> 100,> 100,> 100,> 100,> 100,> 100,> 100,> 100,> 100,> 100,–,–,–,–,–,–,–,–,–,–
CC(C)(C)OC(=O)n1c(-c2ccccc2F)cc(=O)c2cc3c(cc21)OCO3,11.1,> 100,> 100,> 100,> 100,–,> 100,20.4,1.2,> 100,–,–,–,–,–,–,–,–,–,–
Cc1cc2c(nn1)-c1ccccc1C2=O,> 10,> 10,> 10,> 10,> 10,> 10,> 10,> 10,> 10,> 10,–,–,–,–,–,–,–,–,–,–
N#Cc1c(C#N)c(-c2ccccc2)n(-c2ccccc2)c1N,> 100,> 100,> 100,> 100,> 100,> 100,> 100,> 100,> 100,> 100,–,–,–,–,–,–,–,–,–,–
Cc1cc(/N=C/c2ccc(C#N)cc2)n(-c2ccccc2)n1,> 100,> 100,> 100,> 100,> 100,> 100,> 100,> 100,> 100,> 100,–,–,–,–,–,–,–,–,–,–
COc1ccc(N=Nc2c3c(c(O)c4ccccc24)CCC(C)(C)O3)cc1,41.7,71.8,54.1,29.5,34.4,33.5,43.3,> 100,24.9,50.4,–,–,–,–,–,–,–,–,–,–
CC(C)(C)C(=O)C(Cc1ccccc1)C(=O)C(C)(C)C,> 100,> 100,> 100,> 100,> 100,> 100,> 100,> 100,> 100,> 100,–,–,–,–,–,–,–,–,–,–
CC1=CC(=O)C(C(O)(C(F)(F)F)C(F)(F)F)C(C)(C)C1 (stereo not drawn),> 10,> 10,> 10,> 10,> 10,> 10,–,> 10,> 10,> 10,–,–,–,–,–,–,–,–,–,–
CC(C)(C)c1ccc(OCC(=O)O)c(Cl)c1,> 100,> 100,> 100,> 100,> 100,> 100,> 100,> 100,> 100,> 100,–,–,–,–,–,–,–,–,–,–
CC(O)CC(O)(C(F)(F)F)C(F)(F)F (stereo not drawn),> 10,> 10,> 10,> 10,> 10,> 10,–,> 10,> 10,> 10,–,–,–,–,–,–,–,–,–,–
Cc1c2ccncc2c(C)c2c1[nH]c1ccccc12,4.44,2.13,3,2.54,2.58,2.93,4.23,2.32,2.01,2.09,0.695,–,–,–,–,–,–,–,–,–
COC(=O)C1(Cc2ccc3c(c2)CCC3)Cc2cc3c(cc2C1)CCC3,47.8,> 100,> 100,58.5,> 100,56.5,> 100,> 100,> 100,> 100,–,–,–,–,–,–,–,–,–,–
COC(=O)[C@H](Cc1ccccc1)NC(=O)c1ccc(CNC(=O)/C=C/c2cccc(Oc3ccccc3)c2)cc1,> 100,> 100,> 100,> 100,> 100,–,> 100,> 100,36.9,> 100,–,–,–,–,–,–,–,–,–,–
C=C1C(=O)OC2/C=C(/C)C3(O)OC(C)(CC(OC(=O)C(C)C)C12)CC3OC(C)=O (stereo not drawn),> 25.5,> 69.6,46.5,26.3,18.6,6.25,65.9,> 100,23.8,36.6,–,–,–,–,–,–,–,–,–,–
COc1cc(C=C2C(=O)NC(=S)NC2=O)cc(OC)c1OC,> 100,> 100,> 100,> 100,> 100,–,> 100,> 100,> 100,> 100,–,–,–,–,–,–,–,–,–,–
O=C1CS(=O)C23c4cc5ccccc5n4CCC2CCCN13 (stereo not drawn),–,> 100,> 100,> 100,> 100,> 100,> 100,> 100,> 100,> 100,–,–,–,–,–,–,–,–,–,–
O=C1CCc2ccc3c(c21)CC1(Cc2ccccc2C1)C3,> 100,> 100,–,> 100,> 100,92.4,44.2,> 100,11.4,> 100,–,–,–,–,–,–,–,–,–,–
O=C1c2cccc(NCCNCCO)c2C(=O)c2cccc(NCCNCCO)c21,2.88,5.91,4.84,10.3,5.68,1.66,5.67,5.97,3.39,5.53,–,–,–,–,–,–,–,–,–,–
O=C(CNCc1ccccc1)Oc1c(Cl)c(Cl)c(Cl)c(Cl)c1Cl,–,44.3,48.7,> 100,> 100,75.9,> 100,48.8,–,> 100,–,–,–,–,–,–,–,–,–,–
O=C(O)c1c2c(cc3c1CC1(Cc4ccccc4C1=O)C3)CCC2 (stereo not drawn),33.9,> 100,> 100,> 100,> 100,64.5,> 100,> 100,> 65,> 100,–,–,–,–,–,–,–,–,–,–

SMILES,TGI (CCRF-CEM leukemia) [µM],TGI (DU-145 prostate) [µM],TGI (EKVX NSCLC) [µM],TGI (MCF7 breast) [µM],TGI (NCI-H23 lung) [µM],TGI (NCI-H522 lung) [µM],TGI (OVCAR-5 ovarian) [µM],TGI (OVCAR-8 ovarian) [µM],TGI (SK-MEL-5 melanoma) [µM],TGI (SNB-19 CNS) [µM],GI50 (DU-145 prostate) [µM],GI50 (CCRF-CEM leukemia) [nM],GI50 (EKVX NSCLC) [µM],GI50 (MCF7 breast) [µM],GI50 (NCI-H23 lung) [µM],GI50 (NCI-H522 lung) [µM],GI50 (OVCAR-5 ovarian) [µM],GI50 (OVCAR-8 ovarian) [µM],GI50 (SK-MEL-5 melanoma) [µM],GI50 (SNB-19 CNS) [µM]
CCOC(=O)[C@@H]1ON2O[C@@H](OC3CCCC3(c3ccccc3)c3ccccc3)C[C@H]3OC(=O)[C@@H]1C32 (stereo partly drawn),64.8,55.6,> 100,52.1,37.2,91.9,78.4,> 100,> 100,–,–,–,–,–,–,–,–,–,–,–
Clc1ccc(Cl)c(SCCCN2CCNCC2)c1,50.5,36,34.7,40,39.8,34,32.5,46,33.1,34.4,–,–,–,–,–,–,–,–,–,–
COC(=O)c1cc2c(cc1CC(Cc1ccc3c(c1)CCC3)C(=O)OC)CCC2 (stereo not drawn),> 100,> 100,> 100,92.7,> 100,> 100,> 100,> 100,67.6,> 100,–,–,–,–,–,–,–,–,–,–
COc1ccc(/C=N/N2C(=O)c3c(N)c(C#N)c(-c4ccccc4)c(-c4ccccc4)c3C2=O)cc1,> 100,> 100,> 100,> 100,–,> 100,> 100,> 100,> 100,> 100,–,–,–,–,–,–,–,–,–,–
CCCOC(=O)NC(C)C(=O)NC(CCC(=O)NC(CCCC(N)C(=O)O)C(=O)NC(C)C(=O)O)C(=O)O (stereo not drawn),36.9,65.3,> 100,> 100,> 100,> 100,> 100,33.9,30.5,71,–,–,–,–,–,–,–,–,–,–
COc1cc2c(cc1OC)C13CC[N+]4(C)CC5=CCOC6CC(=O)N2C1C6C5CC34[O-] (stereo not drawn),> 100,> 100,> 100,> 100,> 100,> 100,–,> 100,> 100,> 100,–,–,–,–,–,–,–,–,–,–
Cc1cn2c(C)csc2c1P(=O)(OC(C)C)OC(C)C,> 100,> 100,> 100,> 100,> 100,> 100,> 100,> 100,> 100,> 100,–,–,–,–,–,–,–,–,–,–
Cc1cn([C@H]2C[C@](C)(CO)N(C)O2)c(=O)[nH]c1=O,–,> 100,> 100,> 100,> 100,> 100,> 100,–,> 100,> 100,–,–,–,–,–,–,–,–,–,–
CCOC(CN(C)C(=S)Nc1cccc2ccccc12)OCC,> 10,> 10,> 10,> 10,> 10,> 10,–,> 10,> 10,> 10,–,–,–,–,–,–,–,–,–,–
O/C(=C\c1nc2ccccc2nc1NC12CC3CC(CC(C3)C1)C2)c1ccc(Br)cc1,> 10,> 10,> 10,> 10,> 10,> 10,> 10,> 10,> 10,> 10,–,–,–,–,–,–,–,–,–,–
S=C1CC(c2ccccc2)Sc2ccc(Cl)cc2N1 (stereo not drawn),> 100,> 100,> 100,> 100,> 100,> 100,> 100,> 100,> 100,> 100,–,–,–,–,–,–,–,–,–,–
O=C(Nc1ccc(-n2cc(-c3ccncc3)c(-c3ccc(O)c(Cl)c3)n2)cc1)Nc1cccc(Cl)c1Cl,> 32.5,> 32.5,> 32.5,> 32.5,> 32.5,> 32.5,> 32.5,> 32.5,> 32.5,> 32.5,12.8,2470,9.99,4.2,14.6,4.03,> 32.5,6.86,3.26,15.8
COc1ccccc1N1CCN(CCCNC(=O)c2cc(Cl)c(N)c(Cl)c2)CC1,> 100,> 100,> 100,> 100,> 100,–,> 100,> 100,33.2,> 100,–,–,–,–,–,–,–,–,–,–
COc1cc(CNc2nc3cc(C(F)(F)F)ccc3nc2-c2ccccc2)cc(OC)c1OC,> 100,> 100,50.2,22.4,> 100,> 100,–,> 100,73.3,> 100,–,–,–,–,–,–,–,–,–,–
Cc1ccc(S(=O)(=O)NC(=O)NNc2ccc(F)cc2)cc1,> 100,> 100,> 100,> 100,–,> 100,> 100,> 100,> 100,> 100,–,–,–,–,–,–,–,–,–,–
CC(C)(C)OC(=O)C1C(=O)NC(=O)CC1C(COCc1ccccc1)OCc1ccccc1 (stereo not drawn),77.3,> 100,55.5,57.7,92.6,35.8,41.1,> 100,31.1,> 100,–,–,–,–,–,–,–,–,–,–
O=C(CCc1cccc(O)c1)NCCCNC(=O)CCc1cccc(O)c1,> 100,> 100,> 100,> 100,> 100,> 100,> 100,> 100,> 100,> 100,–,–,–,–,–,–,–,–,–,–
C[C@]1(S(=O)(=O)c2ccccc2)C[C@H]2N(Cc3ccccc3)[C@@H]1CCC21OCCO1,> 100,> 100,> 100,> 100,> 100,> 100,> 100,> 100,> 100,> 100,–,–,–,–,–,–,–,–,–,–
CCOC(=O)C1(C(=O)OCC)CCCN1C(=O)[C@H](CNC(=O)OC(C)(C)C)NC(=O)OCc1ccccc1,> 100,> 100,> 100,> 100,> 100,–,> 100,–,> 100,> 100,–,–,–,–,–,–,–,–,–,–
O=c1n(Cc2ccccc2)c(=O)n2c(=O)n(Cc3ccccc3)c(=O)n12,> 100,> 100,–,> 100,> 100,> 100,–,> 100,> 100,> 100,–,–,–,–,–,–,–,–,–,–
OC1(c2ccc(Cl)cc2)c2ccc(CN3CCCC3)cc2C2=NCCN21 (stereo not drawn),30.7,32.2,32.7,33.4,31.2,–,31.9,29.9,22.3,31.1,–,–,–,–,–,–,–,–,–,–

# — PubChem BioAssay (NCI)
